Measured values: patent publication US11510980B2, “Brartemicin analogues” (VICTORIA LINK LTD, priority 2017, dated 2022)

How the values were obtained:
[1] = target: T1, hMincle-Ig (Homo sapiens, UniProt Q9ULY5); test: In vitro Mincle binding assay (ELISA) with hMincle-Ig fusion protein; conditions: plate-coated ligand 0.1 nmol/well
T1 construct: using soluble Mincle-Ig fusion-proteins; made in house
T1 sequence (Q9ULY5 41-219 limits assumed): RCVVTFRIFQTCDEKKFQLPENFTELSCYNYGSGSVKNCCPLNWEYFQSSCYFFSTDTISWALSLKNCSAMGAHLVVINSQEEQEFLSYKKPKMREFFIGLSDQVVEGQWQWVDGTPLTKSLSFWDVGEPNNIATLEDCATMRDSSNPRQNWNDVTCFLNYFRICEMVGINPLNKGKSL
Protocol: (§1) Preparation of ligand-coated plates: Brartemicin analogues 9a-9i, TDM (Carbosynth, Sigma Aldrich), and TDB^14 were dissolved in CHCl3:MeOH (2:1, 1 mM), diluted in isopropanol ([…]) and added to 96-well plates (20 μL/well). The solvents were evaporated and the coated plates were used immediately.
(§2) In vitro Mincle binding assay: The preparation of mMincle- and hMincle-Ig fusion proteins have been previously described. Plate-coated glycolipids 9a-i, TDB, and TDM were incubated with hMincle-Ig, mMincle-Ig, or hIgG1-Fc (Ig) [3 μg/mL in binding buffer (20 mM Tris-HCl, 150 mM NaCl, 1 mM CaCl2), 2 mM MgCl2, pH 7.0)]. Detection of bound protein was achieved via incubation with anti-hIgG-HRP followed by the addition of a colorimetric substrate and measurement of OD at 450 nm. Background was accounted for by subtracting the hIgG1-Fc OD450 values from fusion protein OD450 values
(§3) The synthesised brartemicin analogues prepared in Example 1 were first tested for their ability to bind to both human and murine Mincle in an enzyme-linked immunosorbent assay (ELISA) using soluble Mincle-Ig fusion-proteins (FIG. 1a).

[2] = tested on: wild-type GM-CSF BMDMs; test: Cytokine/chemokine production by wild-type GM-CSF BMDMs on ligand-coated plates; assay type: cell-based, C57BL/6 mice; conditions: wild-type BMDMs, coated plates 0.1 or 1 nmol/well, 24 hours, ELISA
Protocol: as §1
Murine bone-marrow derived macrophages: For the preparation of murine bone-marrow derived macrophages, bone marrow cells were collected from the tibias and femurs of C57BL/6 mice and cultured (250,000 cells/mL) in complete RPMI media [RPMI-1640 (Gibco) with 10% heat inactivated fetal bovine serum (Gibco), 100 unit/mL penicillin-streptomycin (Gibco) and 2 mM Glutamax (Gibco)] supplemented with 50 ng/mL GM-CSF (clone X63/GM-CSF murine cells). Cells were incubated at 37° C. (5% CO2) for 8 days (cells fed by replacing half the media on days 3 and 6). On day 8, all media was removed and the cells were washed with Dulbecco's Phosphate-Buffered Saline (DPBS, Gibco) to remove any loosely-adherent cells. The BMDMs were harvested with StemPro Acutase (1 mL/well, 15 minutes at room temperature, Gibco) and seeded onto a pre-coated 96-well plate. The supernatant was collected and analysed for cytokine/chemokine production after 24 hours.
Cytokine analysis: IL-1β, IFN-γ, IL-6, TNF-α (BD Biosciences), IL-17, and MIP-2 (R&D) levels were determined via sandwich ELISA according to the manufacturer's instructions.
First, the ability of the compounds to activate GM-CSF BMDMs was determined by monitoring the secretion of the inflammatory cytokines TNF, IL-6, and IL-1β and the chemokine, MIP-2, in a ligand-coated plate assay (FIG. 2).
To gain insight into the capacity of the 2G-series of brartemicin analogues to induce an inflammatory immune response, the analogues were then screened for their ability to activate WT and Mincle^−/− BMDMs, with cellular activation being determined by the measurement of IL-1B using ELISA (FIG. 6).

[3] = target: T2, hMincle+FcRγ (Homo sapiens, UniProt Q9ULY5); test: 2B4-NFAT-GFP reporter cells expressing hMincle+FcRγ; assay type: cell-based; conditions: ligand-coated plates 0.01, 0.1 or 1 nmol/well, 18 hours
T2 construct: expressed in transfected cells; host or cells: 2B4-NFAT-GFP reporter cells
T2 sequence (Q9ULY5 1-219): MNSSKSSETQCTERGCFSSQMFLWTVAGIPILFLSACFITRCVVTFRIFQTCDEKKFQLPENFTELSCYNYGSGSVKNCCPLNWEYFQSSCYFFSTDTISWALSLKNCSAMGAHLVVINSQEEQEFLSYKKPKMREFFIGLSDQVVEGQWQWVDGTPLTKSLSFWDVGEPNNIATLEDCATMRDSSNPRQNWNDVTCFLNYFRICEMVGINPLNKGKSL
Protocol: as §1
(§4) 2B4-NFAT-GFP reporter cells: 2B4-NFAT-GFP reporter cells expressing mMincle+FcRγ, hMincle+FcRγ, or FcRγ only have been previously described. […] The reporter cells were harvested, stained with propidium iodide, and analysed for NFAT-GFP expression using flow cytometry (FACS Calibur).
(§5) To determine whether the Mincle binding observed in Example 1 correlated with cellular activation, nuclear factor of activated T cells (NFAT)-green fluorescent protein (GFP) reporter cells expressing mMincle or hMincle coupled to FcRγ were stimulated using plates coated with TDM, TDB, brartemicin (9i), or analogues 9a-9h.
(§6) Activation of the reporter cells was measured through the production of GFP, which was monitored by flow cytometry (FIGS. 1b and 3c).
(§7) With the compounds 43a-h in hand, the ability of these analogues to bind and signal through Mincle was assessed (FIG. 5). Accordingly, NFAT-GFP reporter cells expressing mMincle+FcRγ, hMincle+FcRγ, or FcRγ-only were stimulated with the 2G-brartemicin analogues 43a-h, TDB, iPrOH, or the p-OC18H37 substituted analogue, 9f. Reporter cell activation was measured by the production of NFAT-GFP, which was analysed by flow cytometry.

[4] = target: T3, mMincle-Ig (Mus musculus, UniProt Q9R0Q8); test: In vitro Mincle binding assay (ELISA) with mMincle-Ig fusion protein; design: species or system murine; conditions: plate-coated ligand 0.1 nmol/well
T3 construct: using soluble Mincle-Ig fusion-proteins; made in house
T3 sequence (Q9R0Q8 46-214 limits assumed): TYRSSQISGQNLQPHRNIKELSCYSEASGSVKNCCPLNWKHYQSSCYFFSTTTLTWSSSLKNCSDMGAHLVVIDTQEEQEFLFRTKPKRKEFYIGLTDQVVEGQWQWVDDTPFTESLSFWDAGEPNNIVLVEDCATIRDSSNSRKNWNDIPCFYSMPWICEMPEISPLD
Protocol: as §1, §2, §3

[5] = target: T4, mMincle+FcRγ (Mus musculus, UniProt Q9R0Q8); test: 2B4-NFAT-GFP reporter cells expressing mMincle+FcRγ; assay type: cell-based, murine; conditions: ligand-coated plates 0.01, 0.1 or 1 nmol/well, 18 hours
T4 construct: expressed in transfected cells; host or cells: 2B4-NFAT-GFP reporter cells
T4 sequence (Q9R0Q8 1-214): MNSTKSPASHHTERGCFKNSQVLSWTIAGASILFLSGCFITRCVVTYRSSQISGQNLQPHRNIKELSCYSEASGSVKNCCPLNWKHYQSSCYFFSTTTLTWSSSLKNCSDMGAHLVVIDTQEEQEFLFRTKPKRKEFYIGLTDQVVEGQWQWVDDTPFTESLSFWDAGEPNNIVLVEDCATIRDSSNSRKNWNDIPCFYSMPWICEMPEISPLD
T4 sequence (P20491 19-86 partner): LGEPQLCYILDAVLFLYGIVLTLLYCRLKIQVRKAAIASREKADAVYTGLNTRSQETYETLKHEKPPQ
Protocol: as §1, §4, §5, §6, §7

[6] = tested on: C57BL/6 mice; test: Delayed-type hypersensitivity immunisation with OVA in oil-in-water emulsion; assay type: in vivo
Protocol: Delayed-type hypersensitivity: Mice were sensitised by subcutaneous injection with oil-in-water emulsions (mineral oil/Tween-80/PBS, 9:1:90, v/v/v) containing OVA only (200 μg), OVA+TDB (OVA=200 μg, TDB=0.3 μmol), OVA+9a (OVA=200 μg, 9a=0.3 μmol) or no OVA. After seven days, the mice were challenged with OVA (100 μg/footpad) and after a further seven days, the mice were sacrificed and their spleens harvested. For in vitro restimulation, splenocytes were restimulated with OVA and analysed for spenocyte number (measured at 450 nm after 3 hours, Cell Count Reagent SF, Nacalai Tesque Inc.), IFN-γ production, and IL-17 production. Footpad swelling was measured using a venier caliper pre-challenge, 24 hours post-challenge, and 48 hours post-challenge. Sera were collected from each mouse on days 0, 7, and 14 and analysed for OVA-specific antibody titers by ELISA using HRP coupled goat anti-mouse IgG (GE Health-care), IgG1, IgG2b, IgG2c, and IgG3 (SouthernBiotec). EC50 were defined by plotting the absorbance at 450 nm against log of serum concentration. Antibody titration curves were plotted using GraphPad Prism7 (GraphPad Software).
Compound 9a was then evaluated in vivo to confirm its capacity to induce a Th1 antigen-specific response using a delayed-type hypersensitivity immunisation protocol. To this end, four groups of C57BL/6 mice were immunised by subcutaneous injection with oil-in-water emulsions containing either OVA only, OVA+C18dMeBrar (9a), OVA+TDB, or no OVA. After seven days the mice were challenged with OVA (100 μg per footpad) and after a further seven days, the splenocytes were isolated and restimulated with OVA at three concentrations (10, 30, or 100 μg/mL). The immune response was measured by determining footpad swelling, production of IFN-γ and IL-17 (FIG. 7b), T cell proliferation (FIG. 4a), and antibody titres (FIG. 4c). […] Accordingly, the ability of C18dMeBrar (9a) to lead to an enhanced Th1 immune response was even more striking. This overall immune profile was also reflected in the antibody production by immunised mice. […] A high IgG2c:IgG1 ratio is commonly associated with Th1 responses and a lower ratio is associated with Th2 responses. The production of IgG2c in mice immunised with C18dMeBrar increased three-fold as compared to OVA alone, providing evidence that C18dMeBrar induces a Th1-biased immune response.

Compound | binding to hMincle-Ig (ELISA, OD at 450 nm) [1] | IL-1β production [2] | IL-6 production [2] | MIP-2 production [2] | TNF production [2] | activation of hMincle NFAT-GFP reporter cells (GFP by flow cytometry) [3] | binding to mMincle-Ig (ELISA, OD at 450 nm) [4] | activation of mMincle NFAT-GFP reporter cells (GFP by flow cytometry) [5] | Th1 immune response / adjuvant activity in vivo ([6]; s.c. OVA 200 μg + adjuvant 0.3 μmol, oil-in-water emulsion) | footpad swelling ([6]; s.c. OVA 200 μg + adjuvant 0.3 μmol, OVA challenge 100 μg/footpad) | IL-17 production by splenocytes restimulated with OVA ([6]; s.c. OVA 200 μg + adjuvant 0.3 μmol, restimulation 10, 30 or 100 μg/mL OVA) | antigen specific IFN-γ production, all concentrations of OVA ([6]; s.c. OVA 200 μg + adjuvant 0.3 μmol, splenocytes restimulated with 10, 30 or 100 μg/mL OVA) | IgG1 antibody production ([6]; serum, ELISA) | IgG2b antibody production ([6]; serum, ELISA) | IgG2c antibody production ([6]; serum, ELISA) | production of OVA-specific IgG antibodies ([6]; serum, ELISA)
CCCCCCCOc1ccc(C(=O)OCC2O[C@H](O[C@H]3OC(COC(=O)c4ccc(OCCCCCCC)cc4O)[C@@H](O)C(O)C3O)C(O)C(O)[C@@H]2O)c(O)c1 (stereo partly drawn) [9b, 6,6′-Di-O-(4-heptyloxy-2-hydroxybenzoyl)-α,α′-D-trehalose] | good binding | modest production | modest production | modest production | modest production | activated mMincle and hMincle NFATGFP reporter cells but to a lesser extent than the C18 analogues | good binding | activated mMincle and hMincle NFATGFP reporter cells but to a lesser extent than the C18 analogues |  |  |  |  |  |  |  | 
COc1ccc(C(=O)OCC2O[C@H](O[C@H]3OC(COC(=O)c4ccc(OC)cc4O)[C@@H](O)C(O)C3O)C(O)C(O)[C@@H]2O)c(O)c1 (stereo partly drawn) [9d, 6,6′-Di-O-(2-hydroxy-4-methoxybenzoyl)-α,α′-D-trehalose] | did not bind hMincle- or mMincle-Ig to any great extent | did not induce the production of any of the cytokines measured | did not induce the production of any of the cytokines measured | did not induce the production of any of the cytokines measured | did not induce the production of any of the cytokines measured | only modest activation of hMincle at a high ligand concentration | did not bind hMincle- or mMincle-Ig to any great extent |  |  |  |  |  |  |  |  | 
O=C(OCC1O[C@H](O[C@H]2OC(COC(=O)c3ccc(O)cc3O)[C@@H](O)C(O)C2O)C(O)C(O)[C@@H]1O)c1ccc(O)cc1O (stereo partly drawn) [9e, 6,6′-Di-O-(2,4-dihydroxybenzoyl)-α,α′-D-trehalose] | did not bind hMincle- or mMincle-Ig to any great extent | did not induce the production of any of the cytokines measured | did not induce the production of any of the cytokines measured | did not induce the production of any of the cytokines measured | did not induce the production of any of the cytokines measured |  | did not bind hMincle- or mMincle-Ig to any great extent | did not significantly activate mMincle |  |  |  |  |  |  |  | 
CCCCCCCCCCCCCCCCCCCCCC(=O)OC[C@H]1O[C@H](O[C@H]2O[C@H](COC(=O)CCCCCCCCCCCCCCCCCCCCC)[C@@H](O)[C@H](O)[C@H]2O)[C@H](O)[C@@H](O)[C@@H]1O [TDB, trehalose dibehenate, reference compound] |  | significant production | significant production | significant production | significant production |  |  |  | limited efficacy | neither 9a nor TDB induced any | neither 9a nor TDB induced any | did not lead to a significant increase | showed increases | showed increases | showed increases | elevated the production of IgG antibodies
trehalose dimycolate [TDM, reference compound] |  | significant production | significant production | significant production | significant production |  |  |  |  |  |  |  |  |  |  | 
